Experimental data taken from BindingDB's records for doi:10.1016/j.bmcl.2003.12.089 (Ligand Pharmaceuticals, 2004).
pKi: −log10 of the molar value.

Experiments:
[1] = biological target: Retinoic acid receptor beta (Homo sapiens) (UniProt P10826); experiment: Binding affinity against retinoic acid receptor beta by [3H]ATRA displacement.
[2] = biological target: Retinoic acid receptor gamma (Homo sapiens) (UniProt P13631); experiment: Binding affinity against retinoic acid receptor gamma by [3H]ATRA displacement.
Retinoic acid receptor gamma (Homo sapiens), sequence (P13631 whole entry, looked up): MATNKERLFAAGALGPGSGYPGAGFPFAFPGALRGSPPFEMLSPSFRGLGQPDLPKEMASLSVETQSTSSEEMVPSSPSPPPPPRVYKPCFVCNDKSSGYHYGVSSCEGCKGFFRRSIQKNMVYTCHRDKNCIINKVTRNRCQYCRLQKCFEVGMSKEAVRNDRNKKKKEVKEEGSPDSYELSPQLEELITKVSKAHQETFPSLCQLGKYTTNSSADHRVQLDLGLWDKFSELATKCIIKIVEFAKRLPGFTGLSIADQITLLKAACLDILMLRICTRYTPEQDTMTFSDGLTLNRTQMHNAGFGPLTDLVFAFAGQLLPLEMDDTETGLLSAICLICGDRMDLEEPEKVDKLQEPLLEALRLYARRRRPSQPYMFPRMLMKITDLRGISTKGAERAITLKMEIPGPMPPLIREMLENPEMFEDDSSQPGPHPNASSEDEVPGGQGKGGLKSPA

Retinoic acid receptor beta (Homo sapiens), sequence (P10826 whole entry, looked up): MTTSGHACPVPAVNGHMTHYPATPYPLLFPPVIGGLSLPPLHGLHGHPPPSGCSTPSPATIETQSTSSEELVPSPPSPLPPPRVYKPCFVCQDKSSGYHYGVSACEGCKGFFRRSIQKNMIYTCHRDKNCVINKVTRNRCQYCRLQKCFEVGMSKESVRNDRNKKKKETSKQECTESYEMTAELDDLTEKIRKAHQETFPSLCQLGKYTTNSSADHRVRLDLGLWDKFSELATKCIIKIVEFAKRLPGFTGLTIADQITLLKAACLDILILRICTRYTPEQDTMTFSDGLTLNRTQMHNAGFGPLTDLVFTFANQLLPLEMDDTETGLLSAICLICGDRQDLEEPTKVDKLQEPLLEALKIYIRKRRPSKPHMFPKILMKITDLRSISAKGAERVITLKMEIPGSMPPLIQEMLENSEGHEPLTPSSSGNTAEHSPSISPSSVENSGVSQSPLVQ

Q: What does the source list for `C/C(=C/C=C/C(C)=C/C(=O)O)c1cc(C(C)(C)C)cc(C(C)(C)C)c1OCC(F)F` [7-[3,5-Di-tert-butyl-2-(2,2-difluoro-ethoxy)-phenyl]-3-methyl-octa-2,4,6-trienoic acid]?
A: pKi [1]: < 6.00; pKi [2]: < 6.00

Q: How did the pKi [1] turn out when `CCOc1c(-c2cccc3sc(/C(C)=C/C(=O)O)cc23)cc(C(C)C)cc1C(C)C` [(E)-3-[4-(2-Ethoxy-3,5-diisopropyl-phenyl)-benzo[b]thiophen-2-yl]-but-2-enoic acid] was run?
A: Its pKi is 5.23.

Q: And the pKi [2]?
A: Its pKi is 5.00.

Q: With `CCCCCCCOc1c(-c2cccc3sc(/C(C)=C/C(=O)O)cc23)cc(C(C)(C)C)cc1C(C)(C)C` [(E)-3-[4-(3,5-Di-tert-butyl-2-heptyloxy-phenyl)-benzo[b]thiophen-2-yl]-but-2-enoic acid] as the compound, how does the pKi [1] read?
A: The pKi was < 5.00.

Q: And the pKi [2]?
A: The pKi was < 5.00.

Q: `C/C(=C\C(=O)O)c1cc2c(-c3cc(C(C)(C)C)cc(C(C)(C)C)c3C)cccc2s1` [(E)-3-[4-(3,5-Di-tert-butyl-2-methyl-phenyl)-benzo[b]thiophen-2-yl]-but-2-enoic acid] was tested. Which pKi [1] did it give?
A: The pKi was < 5.00.

Q: And the pKi [2]?
A: The pKi was < 5.00.

Q: With `CCCOc1c(-c2cccc3sc(/C(C)=C/C(=O)O)cc23)cc(C(C)C)cc1C(C)C` [(E)-3-[4-(3,5-Diisopropyl-2-propoxy-phenyl)-benzo[b]thiophen-2-yl]-but-2-enoic acid] as the compound, how does the pKi [1] read?
A: Its pKi is < 5.00.

Q: What about the pKi [2] of the same compound?
A: The pKi was < 5.00.

Q: `CCOc1c(-c2cccc3cc(/C(C)=C/C(=O)O)sc23)cc(C(C)C)cc1C(C)C` [(E)-3-[7-(2-Ethoxy-3,5-diisopropyl-phenyl)-benzo[b]thiophen-2-yl]-but-2-enoic acid] was tested. Which pKi [2] did it give?
A: Its pKi is < 5.00.

Q: Which results are given for `CCOc1c(-c2cccc3cc(/C(C)=C/C(=O)O)oc23)cc(C(C)C)cc1C(C)C` [(E)-3-[7-(2-Ethoxy-3,5-diisopropyl-phenyl)-benzofuran-2-yl]-but-2-enoic acid]?
A: pKi [1]: < 5.00; pKi [2]: < 5.00

Q: What does the source list for `CCCOc1c(-c2cccc3cc(/C(C)=C/C(=O)O)oc23)cc(C(C)C)cc1C(C)C` [(E)-3-[7-(3,5-Diisopropyl-2-propoxy-phenyl)-benzofuran-2-yl]-but-2-enoic acid]?
A: pKi [1]: 5.04; pKi [2]: < 5.00

Q: How did the pKi [1] turn out when `C/C(=C\C(=O)O)c1cc2c(-c3cc(C(C)(C)C)cc(C(C)(C)C)c3OCC(F)(F)F)cccc2s1` [(E)-3-{4-[3,5-Di-tert-butyl-2-(2,2,2-trifluoro-ethoxy)-phenyl]-benzo[b]thiophen-2-yl}-but-2-enoic acid] was run?
A: The pKi was < 5.00.

Q: And the pKi [2]?
A: Its pKi is < 5.00.

Q: Which results are given for `C/C(=C\C(=O)O)c1cc2c(-c3cc(C(C)(C)C)cc(C(C)(C)C)c3OCC(F)F)cccc2s1` [(E)-3-{4-[3,5-Di-tert-butyl-2-(2,2-difluoro-ethoxy)-phenyl]-benzo[b]thiophen-2-yl}-but-2-enoic acid]?
A: pKi [1]: < 5.00; pKi [2]: < 5.00

Q: How did the pKi [1] turn out when `C/C(=C\C(=O)O)c1cc2c(-c3cc(C(C)(C)C)cc(C(C)(C)C)c3OCCC(F)F)cccc2s1` [(E)-3-{4-[3,5-Di-tert-butyl-2-(3,3-difluoro-propoxy)-phenyl]-benzo[b]thiophen-2-yl}-but-2-enoic acid] was run?
A: The pKi was < 5.00.

Q: And the pKi [2]?
A: The pKi was < 5.00.

Q: How did the pKi [1] turn out when `C/C(=C\C(=O)O)c1cc2c(-c3cc(C(C)(C)C)cc(C(C)(C)C)c3OCCCF)cccc2s1` [(E)-3-{4-[3,5-Di-tert-butyl-2-(3-fluoro-propoxy)-phenyl]-benzo[b]thiophen-2-yl}-but-2-enoic acid] was run?
A: Its pKi is < 5.00.

Q: And the pKi [2]?
A: Its pKi is < 5.00.

Q: `C/C(=C\C(=O)O)c1cc2cccc(-c3cc(C(C)C)cc(C(C)C)c3OCC(F)F)c2o1` [(E)-3-{7-[2-(2,2-Difluoro-ethoxy)-3,5-diisopropyl-phenyl]-benzofuran-2-yl}-but-2-enoic acid] was tested. Which pKi [1] did it give?
A: Its pKi is < 5.00.

Q: And the pKi [2]?
A: The pKi was < 5.00.

Q: How did the pKi [1] turn out when `C/C(=C\C(=O)O)c1cc2cccc(-c3cc(C(C)C)cc(C(C)C)c3OCCCF)c2o1` [(E)-3-{7-[2-(3-Fluoro-propoxy)-3,5-diisopropyl-phenyl]-benzofuran-2-yl}-but-2-enoic acid] was run?
A: The pKi was < 5.00.

Q: What about the pKi [2] of the same compound?
A: Its pKi is < 5.00.

Q: `C/C(=C\C(=O)O)c1cc2cccc(-c3cc(C(C)C)cc(C(C)C)c3OCC(F)(F)F)c2o1` [(E)-3-{7-[3,5-Diisopropyl-2-(2,2,2-trifluoro-ethoxy)-phenyl]-benzofuran-2-yl}-but-2-enoic acid] was tested. Which pKi [1] did it give?
A: The pKi was 5.57.

Q: And the pKi [2]?
A: Its pKi is < 5.00.

Q: With `CCCCOc1c(-c2cccc3cc(/C(C)=C(\F)C(=O)O)oc23)cc(C(C)C)cc1C(C)C` [(Z)-3-[7-(2-Butoxy-3,5-diisopropyl-phenyl)-benzofuran-2-yl]-2-fluoro-but-2-enoic acid] as the compound, how does the pKi [1] read?
A: Its pKi is < 5.00.

Q: And the pKi [2]?
A: The pKi was < 5.00.

Q: `C/C(=C(/F)C(=O)O)c1cc2cccc(-c3cc(C(C)C)cc(C(C)C)c3OCC(F)F)c2o1` [(Z)-3-{7-[2-(2,2-Difluoro-ethoxy)-3,5-diisopropyl-phenyl]-benzofuran-2-yl}-2-fluoro-but-2-enoic acid] was tested. Which pKi [1] did it give?
A: The pKi was < 5.00.

Q: And the pKi [2]?
A: The pKi was < 5.00.
